Measured values from patent US8765771B2, “Condensed pyridine or condensed pyrimidine derivative, and medicinal agent comprising same” (Kowa Co., Ltd., priority 2010, dated 2014).

System: Hamster pancreatic β cell strain HIT-T15 cells
Experiment: Action of promoting insulin secretion (Test Example 1)
Type: cell-based
Conditions: Mesocricetus auratus, glucose 2 mM, 1 hour at 37° C., insulin in the supernatant, 0.0001 μM to 10 μM, read-out: EC50 (50% effect concentration, insulin secretion)
Experimental: Action of Promoting Insulin Secretion
Hamster pancreatic β cell strain HIT-T15 cells were subcultured by using a Ham's F-12K culture medium containing penicillin (100 unit/mL), streptomycin (100 μg/mL) and 10% fetal bovine serum. The cells were sown on a 24-well cell culture plate, cultured at 37° C. for 48 hours, and washed with a 0.10 albumin KRBH buffer. Subsequently, the cells were allowed to stand in the same buffer at 37° C. for 1 hour. Glucose was added thereto so as to give a final concentration of 2 mM, and the compound of the present invention that had been dissolved in dimethylsulfoxide at a concentration of 1.000-fold of the respective concentrations (from 0.0001 μM to 10 μM at a common ratio of 10) was further added under a condition that the compound was included in an amount of 0.1 volume % in the buffer. After the addition of the compound of the present invention, the cells were allowed to stand at 37° C. for 1 hour, and the concentration of the insulin included in the supernatant was measured by an insulin kit (SCETI Medical Labo K. K.). A hamster insulin standard solution (SHIBAYAGI Co., Ltd.) was used as a standard solution. A control to which only dimethylsulfoxide had been added was used. The results are shown in Table 8 as the 50% effect concentrations (EC50 values, 50% effect concentrations)) of the respective subject compounds. The EC50 values were calculated by using a statistical analysis program, SAS Pre-Clinical Package Ver 5.0 (SAS institute Japan Co., Tokyo).

| Structure (SMILES) | EC50 [µM] |
| --- | --- |
| CC(C)(C)OC(=O)N1CCC(c2coc3c(Nc4ccc(S(C)(=O)=O)cc4F)ncnc23)CC1 [Example 1, Tert-Butyl 4-(4-{[2-fluoro-4-(methylsulfonyl)phenyl]amino}furo[3,2-d]pyrimidin-7-yl)piperidine-1-carboxylate] | 0.0053 |
| CS(=O)(=O)c1ccc(Nc2ncnc3c(C4CCN(c5ncc(Cl)cn5)CC4)coc23)c(F)c1 [Example 2, 7-[1-(5-chloropyrimidin-2-yl)piperidin-4-yl]-N-[2-fluoro-4-(methylsulfonyl)phenyl]furo[3,2-d]pyrimidine-4-amine] | 0.004 |
| CCc1cnc(N2CCC(c3coc4c(Nc5ccc(S(C)(=O)=O)cc5F)ncnc34)CC2)nc1 [Example 3, 7-[1-(5-ethylpyrimidin-2-yl)piperidin-4-yl]-N-[2-fluoro-4-(methylsulfonyl)phenyl]furo[3,2-d]pyrimidine-4-amine] | 0.0143 |
| CS(=O)(=O)c1ccc(Nc2ncnc3c(C4CCN(c5ncc(F)cn5)CC4)coc23)c(F)c1 [Example 4, N-[2-fluoro-4-(methylsulfonyl)phenyl]-7-[1-(5-fluoropyrimidin-2-yl)piperidin-4-yl]furo[3,2-d]pyrimidine-4-amine] | 0.0331 |
| CS(=O)(=O)c1ccc(Nc2ncnc3c(C4CCN(c5ncc(Br)cn5)CC4)coc23)c(F)c1 [Example 5, 7-[1-(5-bromopyrimidin-2-yl)piperidin-4-yl]-N-[2-fluoro-4-(methylsulfonyl)phenyl]furo[3,2-d]pyrimidine-4-amine] | 0.0124 |
| CS(=O)(=O)c1ccc(Nc2ncnc3c(C4CCN(c5ccc(C(F)(F)F)cn5)CC4)coc23)c(F)c1 [Example 6, N-[2-fluoro-4-(methylsulfonyl)phenyl]-7-{1-[5-(trifluoromethyl)pyridin-2-yl]piperidin-4-yl}furo[3,2-d]pyrimidine-4-amine] | 0.0205 |
| CS(=O)(=O)c1ccc(Nc2ncnc3c(C4CCN(C(=O)OCc5ccccc5)CC4)coc23)c(F)c1 [Example 7, benzyl 4-(4-{[2-fluoro-4-(methylsulfonyl)phenyl]amino}furo[3,2-d]pyrimidin-7-yl)piperidine-1-carboxylate] | 0.0337 |
| CC(C)OC(=O)N1CCC(c2coc3c(Nc4ccc(S(C)(=O)=O)cc4F)ncnc23)CC1 [Example 8, isopropyl 4-(4-{[2-fluoro-4-(methylsulfonyl)phenyl]amino}furo[3,2-d]pyrimidin-7-yl)piperidine-1-carboxylate] | 0.0835 |
| CS(=O)(=O)c1ccc(Nc2ncnc3c(C4CCN(S(=O)(=O)C5CC5)CC4)coc23)c(F)c1 [Example 11, 7-[1-(cyclopropylsulfonyl)piperidin-4-yl]-N-[2-fluoro-4-(methylsulfonyl)phenyl]furo[3,2-d]pyrimidine-4-amine] | 0.0769 |
| CS(=O)(=O)c1ccc(Nc2ncnc3c(C4CCN(S(=O)(=O)C5CCCCC5)CC4)coc23)c(F)c1 [Example 12, 7-[1-(cyclohexylsulfonyl)piperidin-4-yl]-N-[2-fluoro-4-(methylsulfonyl)phenyl]furo[3,2-d]pyrimidine-4-amine] | 0.0091 |
| CC(C)(C)OC(=O)N1CCC(c2coc3c(Oc4ccc(S(C)(=O)=O)c(F)c4)ncnc23)CC1 [Example 21, tert-butyl 4-{4-[3-fluoro-4-(methylsulfonyl)phenoxy]furo[3,2,d]pyrimidin-7-yl}piperidine-1-carboxylate] | 0.0519 |
| CC(C)(C)OC(=O)N1CCC(c2coc3c(N4CCc5cc(S(C)(=O)=O)ccc54)ncnc23)CC1 [Example 24, tert-butyl 4-{4-[5-(methylsulfonyl)indolin-1-yl]furo[3,2-d]pyrimidin-7-yl}piperidine-1-carboxylate] | 0.0036 |
| CCc1cnc(N2CCC(c3coc4c(N5CCc6cc(S(C)(=O)=O)ccc65)ncnc34)CC2)nc1 [Example 25, 7-[1-(5-ethylpyrimidin-2-yl)piperidin-4-yl]-4-[5-(methylsulfonyl)indolin-1-yl]furo[3,2-d]pyrimidine] | 0.0164 |
| CC(C)(C)OC(=O)N1CCC(c2csc3c(Nc4ccc(S(C)(=O)=O)cc4F)ncnc23)CC1 [Example 27, tert-butyl 4-(4-{[2-fluoro-4-(methylsulfonyl)phenyl]amino}thieno[3,2-d]pyrimidin-7-yl)piperidine-1-carboxylate] | 0.0507 |
| CS(=O)(=O)c1ccc(Nc2ncnc3c(C4CCN(c5ncc(C(F)(F)F)cn5)CC4)coc23)c(F)c1 [Example 31, N-[2-fluoro-4-(methylsulfonyl)phenyl]-7-{1-[5-(trifluoromethyl)pyrimidin-2-yl]piperidin-4-yl}furo[3,2-d]pyrimidine-4-amine] | 0.0045 |
| CC(C)(OC(=O)N1CCC(c2coc3c(Nc4ccc(S(C)(=O)=O)cc4F)ncnc23)CC1)C(F)(F)F [Example 33, 1,1,1-trifluoro-2-methylpropan-2-yl 4-(4-{[2-fluoro-4-(methylsulfonyl)phenyl]amino}furo[3,2-d]pyrimidin-7-yl)piperidine-1-carboxylate] | 0.0151 |
| CC(C)(C)COC(=O)N1CCC(c2coc3c(Nc4ccc(S(C)(=O)=O)cc4F)ncnc23)CC1 [Example 35, neopentyl 4-(4-{[2-fluoro-4-(methylsulfonyl)phenyl]amino}furo[3,2-d]pyrimidin-7-yl)piperidine-1-carboxylate] | 0.0584 |
| CS(=O)(=O)c1ccc(Nc2ncnc3c(C4CCN(C(=O)OCC(Cl)(Cl)Cl)CC4)coc23)c(F)c1 [Example 36, 2,2,2-trichloroethyl 4-(4-{[2-fluoro-4-(methylsulfonyl)phenyl]amino}furo[3,2-d]pyrimidin-7-yl)piperidine-1-carboxylate] | 0.0187 |
| CS(=O)(=O)c1ccc(Nc2ncnc3c(C4CCN(C(=O)Oc5ccccc5)CC4)coc23)c(F)c1 [Example 37, phenyl 4-(4-{[2-fluoro-4-(methylsulfonyl)phenyl]amino}furo[3,2-d]pyrimidin-7-yl)piperidine-1-carboxylate] | 0.0562 |
| CC(C)(C)OC(=O)N1CCC(c2coc3c(Oc4ccc(S(C)(=O)=O)cc4)ncnc23)CC1 [Example 40, tert-butyl 4-(4-{4-(methylsulfonyl)phenoxy}furo[3,2-d]pyrimidin-7-yl)piperidine-1-carboxylate] | 0.0107 |
| CC(C)(C)OC(=O)N1CCC(c2coc3c(Oc4ccc(-n5cnnn5)cc4)ncnc23)CC1 [Example 41, tert-butyl 4-{4-[4-(1H-tetrazol-1-yl)phenoxy]furo[3,2-d]pyrimidin-7-yl}piperidine-1-carboxylate] | 0.0429 |
